Results on one molecule are retold here after patent US20240173241A1, “Multistable Photochromic Pigments For Intradermal Use” (THE REGENTS OF THE UNIVERSITY OF COLORADO, a body corporate, priority 2021, published 2024).

This data set can be described thus: UV activation of P-type photochromic dye in PMMA matrix in natural sunlight (ΔE*ab vs. time). It is filed as physicochemical. An excerpt: FIG. 5 is a set of six graphs (A-F) comparing measured and modeled data for the UV activation of P-type photochromic dyes with and without UV and color filters. The UV-activated color change is quantified by ΔE*ab in CIELAB chromaticity space for measured data, while it is expressed in terms of the relative concentration. [C], of the photoactivated species in the modeled data. (A) ΔE*ab vs. time for a P-type photochromic dye (1,2-Bis(2-methyl-5-phenyl-3-thienyl)-perfluorocyclopentenediarylethene, DAE-0001) embedded in a PMMA matrix in natural sunlight in Boulder, Colorado. The time to 85% complete activation, […], is 67 s. (B) ΔE*ab vs. time for DAE-0001 with 50% UV filter ([…] =142 s). […]
where [C] is the concentration of the photoactivated species (photostationary state), [S] is the concentration of the ground-state species, εS,λ is the molar absorptivity of the ground-state species at wavelength λ, εC,λ is the molar absorptivity of the photoactivated species at wavelength λ, φs is the quantum yield of the cycloreversion or deactivation, φC is the quantum yield of photoactivation, Iλ is the irradiance at wavelength λ, and l is the path length. […] The simulations agree well with measured data of its UV activation in natural sunlight in Boulder, Colorado, as shown in FIG. 5A and FIG. 5B. […]

`Cc1sc(-c2ccccc2)cc1C1=C(c2cc(-c3ccccc3)sc2C)C(F)(F)C(F)(F)C1(F)F` [DAE-0001, 1,2-Bis(2-methyl-5-phenyl-3-thienyl)-perfluorocyclopentenediarylethene]: the “time to 85% complete activation” value turned out to be 67 s (embedded in a PMMA matrix, natural sunlight in Boulder, Colorado, no filter (FIG. 5A)) and 142 s (natural sunlight, with 50% UV filter (FIG. 5B)).
